Patent publication US20030232862A1 (priority 2002, published 2003)
Like-named read-outs stand apart in the source and are kept apart here.

Legend:
Cyclooxygenase (COX) = target: T1, Cyclooxygenase (COX) (Ovis aries, UniProt P05979); assay: COX inhibition assay, single dose screen (Table 2); assay type: biochemical; settings: for COX Inhibition: Table 9 qualitative profile
T1 sequence (P05979 25-600): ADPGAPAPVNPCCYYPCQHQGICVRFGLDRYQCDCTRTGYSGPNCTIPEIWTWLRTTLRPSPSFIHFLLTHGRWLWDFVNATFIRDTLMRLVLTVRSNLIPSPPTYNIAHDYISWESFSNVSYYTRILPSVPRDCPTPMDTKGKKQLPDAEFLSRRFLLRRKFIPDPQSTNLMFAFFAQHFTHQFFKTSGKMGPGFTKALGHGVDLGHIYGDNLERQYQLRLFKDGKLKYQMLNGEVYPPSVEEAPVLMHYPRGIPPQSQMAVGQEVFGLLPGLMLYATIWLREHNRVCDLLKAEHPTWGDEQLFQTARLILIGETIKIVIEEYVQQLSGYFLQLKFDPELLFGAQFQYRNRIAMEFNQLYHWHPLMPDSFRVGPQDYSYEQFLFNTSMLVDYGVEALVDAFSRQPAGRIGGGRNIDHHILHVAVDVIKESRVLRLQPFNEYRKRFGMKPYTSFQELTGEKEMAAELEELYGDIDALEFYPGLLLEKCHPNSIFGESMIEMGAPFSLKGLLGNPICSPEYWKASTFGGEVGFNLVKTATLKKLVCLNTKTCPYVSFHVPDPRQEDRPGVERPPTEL

[1] = target: cGMP PDE purified from human colon HT-29 cultured tumor cells (Homo sapiens, UniProt O76074); assay: cGMP PDE inhibition assay; assay type: biochemical; settings: for PDE Inhibition: Table 9 qualitative profile
[2] = tested on: premalignant lesions in mouse mammary gland organ culture; assay: Mammary gland organ culture model; on mammary gland organ culture: key: −: Not active; +: Slightly active; + +: Moderately active; + + +: Strongly active; + + + +: Highly active; assay type: cell-based; settings: for inhibition of formation of premalignant lesions: FIG. 17
Description: Test compounds identified by the above methods can be tested for antineoplastic activity by their ability to inhibit the incidence of pre-neoplastic lesions in a mammary gland organ culture system. This mouse mammary gland organ culture technique has been successfully used by other investigators to study the effects of known antineoplastic agents such as certain NSAIDs, retinoids, tamoxifen, selenium, and certain natural products, and is useful for validation of the screening method of the present invention.
For example, female BALB/c mice can be treated with a combination of estradiol and progesterone daily, in order to prime the glands to be responsive to hormones in vitro. The animals are sacrificed, and thoracic mammary glands are excised aseptically and incubated for ten days in growth media supplemented with insulin, prolactin, hydrocortisone, and aldosterone. DMBA (7,12-dimethylbenz(a)anthracene) is added to medium to induce the formation of premalignant lesions. Fully developed glands are then deprived of prolactin, hydrocortisone, and aldosterone, resulting in the regression of the glands but not the pre-malignant lesions.
The test compound is dissolved in DMSO and added to the culture media for the duration of the culture period. At the end of the culture period, the glands are fixed in 10% formalin, stained with alum carmine, and mounted on glass slides. The incidence of forming mammary lesions is the ratio of the glands with mammary lesions to […]. The incidence of mammary lesions in test compound treated glands is compared with that of the untreated glands.
The extent of the area occupied by the mammary lesions can be quantitated by projecting an image of the gland onto a digitation pad. The area covered by the gland is traced on the pad and considered as 100% of the area. The space covered by each of the non-regressed structures is also outlined on the digitization pad and quantitated by the computer.
Mammary gland organ culture experiment were performed as previously described (Mehta and Moon, Cancer Research, 46: 5832-5835, 1986).

[3] = tested on: HT-29 colon adenocarcinoma cells; assay: Apoptosis by DNA fragmentation assay in HT-29 cells; assay type: cell-based, human; settings: Table 9 qualitative profile; further: key: −: Not active; +: Slightly active; + +: Moderately active; + + +: Strongly active; + + + +: Highly active
[4] = target: T2, PDE Peak A (PDE5) from SW480 cells (Homo sapiens, UniProt O76074); assay: cGMP hydrolysis by PDE Peak A (PDE5) isolated from SW480 cells; assay type: biochemical
T2 construct: To isolate the novel phosphodiesterase from SW480, approximately four hundred million SW480 cells were grown to confluence; endogenous in cells; host or cells: SW480 colon cancer cells; 105,000 g supernatant, DEAE-Trisacryl M fraction

HT-29 cells = assay: Growth inhibition of HT-29 cells (SRB assay; trypan blue counting in time course); assay type: cell-based, human; settings: for Growth Inhibition: Table 9 qualitative profile
[5] = tested on: SW-480 colon adenocarcinoma cells; assay: Apoptosis fold induction protocol (DNA fragmentation, Table 4); settings: 100 μM; cell line not given
[6] = target: T3, cGMP binding sites of GST-cGB-PDE5 fusion protein (Homo sapiens, UniProt O76074); assay: cGMP binding assay with GST-cGB-PDE5 fusion protein; settings: for competition with cGMP binding at high concentration: 100 μM, cGMP 2 μM
T3 construct: made in house; host or cells: E. coli BL21 (DE3)

[7] = tested on: Peak B's (from SW480, HTB-26, and LnCAP); assay: FPLC-isolated Peak B PDE activity from three neoplastic cell lines; assay type: biochemical
Experimental: The novel Peak B was also isolated from two other neoplastic cell lines, a breast cancer cell line, HTB-26, and a prostate cancer cell line, LnCAP, by a procedure similar to the one above used to isolate it from SW480. The protocol was modified in several respects. To provide even greater reproducibility to allow comparison of different cell lines, a Pharmacia AKTA FPLC was used to control sample loading and elution on an 18 mL DEAE TrisAcryl M column. SW840 was run by this same procedure multiple times to provide a reference of Peak B. 200-400 million cells of SW480 were used for the profiles. 70 million cells of LnCAP were used for a profile (see FIGS. 22 and 23), and in a separate experiment 32 million cells of HTB-26 were used for a profile (see FIGS. 20 and 21). After re-suspending cells in homogenization buffer, samples were manually homogenized. FPLC buffer A was 8 mM TRIS-acetate, 5 mM Mg acetate, 0.1 mM EDTA, pH 7.5 and buffer B was 8 mM TRIS-acetate, 5 mM Mg acetate, 0.1 mM EDTA, 1 M Na acetate, pH 7.5. Supernatants were loaded onto the column at 1 mL per minute, followed by a wash with 60 mL buffer A at 1 mL per minute. A gradient was run from 0-15% buffer B in 60 mL, 15-50% buffer B in 60 mL, and 50-100% buffer B in 16 mL. During the gradient 1.5 mL fractions were collected.

5-fluoro-2-methyl-1-(p-methylsulfinylbenzylidene)-3-indenylacetic acid [Sulindac sulfide, reference compound]
% Inhibition at 100 μM (cyclooxygenase) (Cyclooxygenase (COX)): 97%
COX Inhibition (Cyclooxygenase (COX)): + + + +
% Inhibition at 10 μM (cGMP PDE) [1]: 97%
PDE Inhibition [1]: + + +
IC50 ([1]; read-out: IC50 for inhibition of cGMP PDE): 17 µM
inhibition of formation of premalignant lesions [2]: inactive
Apoptosis [3]: + + +
competitive (with cGMP) inhibition/binding, Peak A [4]: competitively inhibited

CC(=O)NC(CSC12CC(=O)OC1(C)/C(=C/c1ccc(S(C)(=O)=O)cc1)c1ccc(F)cc12)C(=O)O (racemic) [D, rac-(E)-1-(butan-1′,4′-olido)-[3′,4′:1,2]-6-fluoro-2-methyl-3-(p-methylsulfonylbenzylidene)-1S-indanyl-N-acetylcysteine]
% Inhibition at 100 μM (cyclooxygenase) (Cyclooxygenase (COX)): <25%
% Inhibition at 100 μM (growth) (HT-29 cells): 78%
Growth Inhibition (HT-29 cells): + +

CCCCCC[C@@H]([C@@H](C)O)n1cnc2c(N)ncnc21 (racemic) [EHNA]
Fold induction at 100 μM (apoptosis) [5]: <2.0 fold

CCCCOC1C2OP(=O)(O)OCC2OC1n1cnc2c(N)ncnc21 (centres unmarked) [2′-O-butyl-cAMP]
competition with cGMP in binding of GST-cGB-PDE5 ([6]; 3H-cGMP 2 μM): did not compete

CCCCOC1C2OP(=O)(O)OCC2OC1n1cnc2c(=O)[nH]c(N)nc21 (centres unmarked) [2′-O-butyl-cGMP]
competition with cGMP in binding of GST-cGB-PDE5 ([6]; 3H-cGMP 2 μM): did not compete

CC1=C(CC(=O)O)c2cc(F)ccc2/C1=C\c1ccc(Cl)cc1 [Compound C, (Z)-5-Fluoro-2-methyl-1-(p-chlorobenzylidene)-3-acetic acid]
% Inhibition at 10 μM (cGMP PDE) [1]: <25%
% Inhibition at 100 μM (growth) (HT-29 cells): 80%

Nc1ncnc2c1ncn2[C@@H]1O[C@@H]2COP(=O)(O)O[C@H]2[C@H]1O [Cyclic AMP]
competition with cGMP in binding of GST-cGB-PDE5 [6]: did not compete

O=c1[nH]cnc2c1ncn2[C@@H]1O[C@@H]2COP(=O)(O)O[C@H]2[C@H]1O [Cyclic IMP]
competition with cGMP binding at high concentration [6]: partially compete

Nc1nc2c(nc(Br)n2[C@@H]2O[C@@H]3COP(=O)(O)O[C@H]3[C@H]2O)c(=O)[nH]1 [Example 8-bromo-cGMP]
competition with cGMP binding at high concentration [6]: partially compete

O=C([O-])C1CCN(c2nc(NCc3ccc4c(c3)OCO4)c3cc(Cl)ccc3n2)CC1.[Na+] [Example E4021, reference compound]
% Inhibition at 100 μM (growth) (HT-29 cells): <50%
sensitivity of Peak B cGMP PDE activity ([7]; 100 nM, 0.25 μM cGMP): resistant

CC1=C(CC(=O)N(C2CCCCC2)C2CCCCC2)c2cc(F)ccc2/C1=C\c1ccc(S(C)(=O)=O)cc1 [F, (Z)-5-Fluoro-2-methyl-1-(p-methylsulfonylbenzylidene)-3-indenylacetamide, N,N′-dicyclohexyl]
PDE Inhibition [1]: −
Growth Inhibition (HT-29 cells): + +

Clc1cccc(Nc2nnc(-c3ccccc3)c3ccccc23)c1 [MY5445, 1-(3-chloroanilino)-4-phenyphthalazine, reference compound]
% Inhibition at 100 μM (cyclooxygenase) (Cyclooxygenase (COX)): 94%
COX Inhibition (Cyclooxygenase (COX)): + + +
Apoptosis [3]: + + +
Growth Inhibition (HT-29 cells): + + +

COc1ccc(C2CNC(=O)C2)cc1OC1CCCC1 (centres unmarked) [Rolipram]
inhibition of cAMP PDE activity in Peak B fractions [7]: inhibited most of the cAMP PDE activity

CCCc1nn(C)c2c(=O)[nH]c(-c3cc(S(=O)(=O)N4CCN(C)CC4)ccc3OCC)nc12 [Sildenafil, reference compound]
inhibition of activity of Peak A [4]: inhibited activity of Peak A

Nc1ccn([C@@H]2O[C@@H]3COP(=O)(O)O[C@H]3[C@H]2O)c(=O)n1 [cCMP]
competition with cGMP in binding of GST-cGB-PDE5 ([6]; 3H-cGMP 2 μM): did not compete

O=c1ccn([C@@H]2O[C@@H]3COP(=O)(O)O[C@H]3[C@H]2O)c(=O)[nH]1 [cUMP]
competition with cGMP in binding of GST-cGB-PDE5 ([6]; 3H-cGMP 2 μM): did not compete

CC1=C(CC(=O)O)c2cc(F)ccc2/C1=C\c1ccc([S+](C)[O-])cc1 (centres unmarked) [sulindac, reference compound]
inhibition of formation of premalignant lesions [2]: effectively inhibit

rac-(E)-1-(butan-1′,4′-olido)-[3′,4′:1,2]-6-fluoro-2-methyl-3-(p-methylsulfonylbenzylidene)-1S-indanyl-glutathione)
PDE Inhibition [1]: −
Growth Inhibition (HT-29 cells): + +

ribo-(E)-1-Triazolo-[2′,3′:1″,3″]-1-(butan-1′,4′-olido)-[3′,4′:1,2]-6-fluoro-2-methyl-3-(p-methylsulfonylbenzylidene)-indan [G]
PDE Inhibition [1]: −
Mammary Gland Organ Culture ([2]; Table 9 qualitative profile): + + +
Apoptosis [3]: + +
Growth Inhibition (HT-29 cells): + +
